This note sets out measurements from the METLIN SMRT retention time set (Domingo-Almenara et al. 2019).

Molecules are shown by their SMILES.

The series can be described thus: gradient 5% acetonitrile 3 min, to 50% in 2 min, to 85% in 15 min, held 3 min, 100 µL/min. Particulars: column: Zorbax Extend-C18 2.1 x 50 mm; eluents: water / acetonitrile, 0.1% formic acid. In outline:
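Pure standards were run in mixtures of ~100 molecules by HPLC coupled to a quadrupole time-of-flight mass spectrometer. The column was a Zorbax Extend-C18 (2.1 × 50 mm, 1.8 μm) at 100 μL/min, with water and acetonitrile each containing 0.1% formic acid, in positive and negative ionization mode. Dead and dwell volumes were 40 μL and 900 μL. Retention time was taken from computationally picked adduct peaks, each manually inspected, with data collected over 3 months.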
Compound `O=C([C@@H]1C[C@H](F)CN1C(=O)c1ccsc1)N1CCCCC1` registered an RP-LC retention time of 653 s. In turn, `Cc1ccc(NC(=O)c2[nH]c3cc(C)sc3c2CN2CCOCC2)c(Cl)c1` gave an RP-LC retention time of 731 s. With `CC1=C(c2ccc(C)c(C)c2)S(=O)(=O)N=C1N1CCCN(C(=O)c2ccco2)CC1` the figure was 836 s; with `COc1ccc(Cl)cc1NC(=O)NCC(c1cccnc1)c1cn(C)c2ccccc12` (centres undefined), 785 s.

For `CCCCn1nc2ccc(S(=O)(=O)N3CCC(C)CC3)cn2c1=O`, the RP-LC retention time was 970 s. With `Cn1nc(-c2nc(C3CC3)no2)c2c1CCN(C(=O)Nc1ccc(F)cc1)C2`, the RP-LC retention time amounted to 768 s. As to `Cc1nc(CC(=O)NC(C)c2ccccc2)sc1C(=O)NCC(C)C` (centres undefined), the RP-LC retention time stood at 763 s. As to `COc1ccc(NC(=O)c2cc(C(C)C)n3nccc3n2)c(C)c1`, the RP-LC retention time was determined as 1250 s. In turn, `CCCOC(=O)C1=C(C)NC2=C(C(=O)C(C(=O)OC)C(C)C2)C1c1cccc(F)c1` (centres undefined) gave an RP-LC retention time of 994 s.

Turning to `O=C(Nc1ccc(C2(C(=O)O)CCC2)cc1)C1CC1`, the RP-LC retention time turned out to be 710 s.

Compound `Cc1cc(=O)n(CC(=O)Nc2cccc(C(F)(F)F)c2)c(N2CCN(c3ccccc3)CC2)n1` returned an RP-LC retention time of 969 s. With `CCN(CC)C(=O)CN(C)C(=O)c1cc2c(s1)N(CC1CC1)CCCC2` the figure was 947 s. For the compound `CCOc1ccc(Cc2nc(-c3ccc4c(c3)N(CC)C(=O)CO4)no2)cc1OCC`, the RP-LC retention time is 1070 s. With `CC1CCN(c2ncc3c(n2)CCC(C(=O)NCCN2CCc4ccccc4C2)C3)CC1` (centres undefined) the figure was 654 s; with `CCc1cnc2c(c1OC)c(=O)n(Cc1ccccc1F)c(=O)n2C`, 970 s; with `O=C(NCCCN1CCOC(c2ccccc2)C1)c1ccc(Cl)cc1Cl` (centres undefined), 599 s. Consider `O=C(Nc1nnc(C2CC(=O)N(c3ccc(F)cc3)C2)o1)c1ccc(C(F)(F)F)cc1` (centres undefined), for which the RP-LC retention time was 830 s. With `Cc1ccc(C)c(N2CCN(c3ccncc3N)CC2)c1` the figure was 777 s; with `COc1ccc(N2CC(c3noc(-c4ccc(OC)c(OC)c4)n3)CC2=O)cc1` (centres undefined), 839 s. With `Cc1ccc(NC(=O)Cn2cnc3nc(N4CCCC(C(=O)NC(C)C)C4)sc3c2=O)c(C)c1` (centres undefined) the figure was 710 s. With `COc1ccc(-c2noc(C3CCCN3C(=O)c3ccc(N(C)C)cc3)n2)cc1OC` (centres undefined) the figure was 881 s; with `Cc1ccc(CNC(=O)N2CC(N(C3CCOCC3)S(C)(=O)=O)C2)cc1`, 591 s; with `COC(=O)c1ccccc1NC(=O)C1CCCN(c2ncnc3onc(-c4ccc(F)cc4)c23)C1` (centres undefined), 1130 s.

As for `COc1ccc(OC)c(S(=O)(=O)N2CCCN(C)c3ccccc32)c1`, the RP-LC retention time turned out to be 860 s. On to `Cc1nc(-c2cccs2)c(CCC(=O)Nc2ccccc2C(F)(F)F)s1`, for which the RP-LC retention time turned out to be 923 s. Then `CCC(=O)N1CCc2cc(N3CC(C(=O)Nc4ccc(F)c(F)c4)CC3=O)ccc21` (centres undefined), with 690 s.

`Cc1cc(C)cc(NC(=O)C2CCN(Cc3cnn(-c4ccccc4)c3-n3cccc3)CC2)c1` displayed an RP-LC retention time of 794 s. Then `CCOC(=O)c1c(C)c(CCC(=O)N2CCC(C)CC2)n(C)c1C`, with 950 s; and `CCCNc1cc(N2CCC(CCC(=O)NC3CC3)CC2)ncn1`, with 588 s; and `CCC(=O)N1CCCN(C2=NS(=O)(=O)C(c3ccc(C)c(C)c3)=C2C)CC1`, with 766 s. Consider `Cc1c(-c2ccnc(N3CCN(Cc4ccccc4)CC3)n2)cnc2nc(-c3ccc(Cl)cc3)nn12`, for which the RP-LC retention time turned out to be 796 s.

Turning to `CCN1C(=O)NC(c2cccc(F)c2)C2=C1CN(CCC(=O)N1CCCC1)C2=O` (centres undefined), the RP-LC retention time is 606 s. Compound `COCC(=O)NC1CCC12CCN(S(=O)(=O)c1cn(C)cn1)CC2` (centres undefined) had an RP-LC retention time of 623 s. As for `Cc1cc(N2CCCC2)n2nc(CN3CCCCC3C)nc2n1` (centres undefined), the RP-LC retention time is 566 s. Consider `CCNC(=O)C1CCCN(c2nc3ncn(CC(=O)NCc4ccccc4)c(=O)c3s2)C1` (centres undefined), for which the RP-LC retention time was 638 s.

Compound `COc1nn(C)cc1C(=O)N1CCC(C(=O)NCC2CCCO2)CC1` (centres undefined) had an RP-LC retention time of 553 s. `Cc1ncc2c(n1)C[C@@H]1CC[C@H]2N1C(=O)Nc1ccc2c(c1)OCCO2` registered an RP-LC retention time of 630 s. With `COC(=O)c1c(C)[nH]c(C(=O)N2CCCC(C(=O)NCCc3ccco3)C2)c1C` (centres undefined) the figure was 698 s; with `CCOc1ccc(-c2noc(Cn3c(=O)n(CC)c(=O)c4ccccc43)n2)cc1OC`, 984 s. For `CC1CCCN(CCCNC(=O)CN2C(=O)CCn3nc(-c4cn(C)c5ccccc45)cc32)C1` (centres undefined), the RP-LC retention time is 635 s. Then `CN1C(=O)c2cc(C(=O)N3CCOCC3)nn2CC1(C)C(=O)NCc1ccccc1` (centres undefined), with 632 s; and `CCCCN(CCCC)c1nc(-c2ccncc2)nc2ccccc12`, with 992 s.

On to `CCn1c(C(=O)Nc2cc(C)cc(C)c2)cc2sc(Cl)cc21`, for which the RP-LC retention time was 1110 s. In turn, `CCn1c(=O)c2c(cc(C)n2C)n(CC(=O)Nc2ccccc2C)c1=O` showed an RP-LC retention time of 776 s.

`COc1ccc(OCc2noc(CNC(=O)C3(c4ccccc4)CCOCC3)n2)cc1` gave an RP-LC retention time of 802 s. Then `Cn1ncc2c3ccccc3n(CCCC(=O)NCc3ccc4c(c3)OCO4)c2c1=O`, with 751 s. `O=C(NCc1ccccc1)C1CCN(c2cnc(N3CCCC3)nc2)CC1`: the RP-LC retention time worked out at 639 s. Then `O=C(NCCCN1CCCC1)C1CCc2sc(C(=O)N3CCOCC3)cc2C1` (centres undefined), with 566 s; and `O=C(Cn1c(=O)oc2ccccc21)Nc1nc(-c2ccc(Br)cc2)cs1`, with 1050 s; and `Cc1noc(/C=C\c2ccc(S(=O)(=O)NC3CC3)cc2)c1NC(=O)C1CC1`, with 766 s. As for `COc1ccc2cc(C(=O)N3CC(n4cc(COCC5CC5)nn4)C3)[nH]c2c1`, the RP-LC retention time worked out at 745 s. Then `O=C(CCS(=O)(=O)c1ccccc1)N1CCN(CC(F)(F)F)CC1`, with 711 s; and `COc1ccc(N(C)C(=O)c2nc(C)n(C3CCN(S(C)(=O)=O)CC3)c2C)cc1`, with 600 s. Then `CN(C)c1ccc(CN2C(=O)CN(S(C)(=O)=O)CC2(C)C(=O)NCc2ccc(Cl)cc2)cc1` (centres undefined), with 662 s; and `Cc1cc(=O)n(CC(=O)N2CCCc3ccccc32)c(N2CCCCC2)n1`, with 703 s; and `COc1ccccc1N1CCN(c2ncc3c(n2)CCN(Cc2cccc(C)c2)C3)CC1`, with 705 s. With `COc1ccc(C2(C(=O)N3CCC4(CC3)C(OC)CN4c3cccc(F)c3)CC2)cc1` (centres undefined) the figure was 1090 s; with `CN(C)c1ccc(-c2nnc3sc(-c4ccc5ccccc5n4)nn23)cc1`, 1360 s; with `CC(=O)c1ccc(NC(=O)Cn2c(-c3cnccn3)nc(C)c(C)c2=O)cc1`, 680 s. For `COc1ccc(-c2ccc(N3CCN(c4ccccc4)CC3)nn2)cc1S(=O)(=O)N1CCOCC1`, the RP-LC retention time turned out to be 766 s. With `COc1ccc(Br)cc1CNC(=O)C1CCN(C(=O)c2cc3ccsc3[nH]2)CC1` the figure was 839 s; with `CCc1ccc(-c2csc(NC(=O)c3cccnc3)n2)cc1`, 924 s; with `O=C(Cc1csc(-c2ccccc2)n1)Nc1nc(-c2ccc3c(c2)CCCC3)cs1`, 764 s. For the compound `COc1cccc(NC(=O)C2CCCN(S(=O)(=O)c3c[nH]c(C(=O)N4CCCCCC4)c3)C2)c1` (centres undefined), the RP-LC retention time is 882 s.

Compound `CCc1ccccc1N1C(=O)c2c(C(=O)OC)ncn2CC1(C)C(=O)NC1CCCC1` (centres undefined) showed an RP-LC retention time of 733 s. For `O=C(NC1CCCC1)NC1CCN(c2ccccc2)C1=O` (centres undefined), the RP-LC retention time was determined as 726 s. As for `CCC(CC)NC(=O)c1c(OCC2CC2)cc(=O)n2c1CCCCC2`, the RP-LC retention time came to 754 s.

`COc1nn(C)cc1C(=O)N1CCCC(COCc2ccccc2)C1` (centres undefined) had an RP-LC retention time of 742 s. Then `Cc1nnc(-c2cc(NC(=O)Cc3c(F)cccc3Cl)c(C)s2)o1`, with 886 s; and `CCOC(=O)c1ccc(NC(=O)COc2ccc(-c3nnc4n3CCCC4)cc2)cc1`, with 730 s; and `O=C(Nc1ccc(F)cc1)N1CCC(n2cnc3ccc(Cl)cc3c2=O)CC1`, with 828 s. Regarding `CCCn1cc(C(=O)NCc2ccc(F)cc2F)c(S(=O)(=O)N2CCC(C)CC2)n1`, the RP-LC retention time stood at 1100 s. With `Cc1sc(C)c(S(=O)(=O)N2CCCCC2)c1-c1cc(C(F)(F)F)on1` the figure was 1210 s; with `O=C(C1=CN(c2cccc(Br)c2)c2cc(F)ccc2S1(=O)=O)N1CCCC1`, 863 s; with `CCOc1ccc(NC(=O)c2cc(C)n3nc(-c4ccco4)cc3n2)cc1`, 1130 s.

`Cc1ccccc1Nc1nc(-c2ccccc2)cs1`: the RP-LC retention time is 1120 s. With `CCOc1cccc(CNC(=O)C2CCN(Cc3cn(C)c4ccccc34)CC2)c1`, the RP-LC retention time worked out at 686 s. `CCc1cc(=O)n(CC(=O)Nc2ccc(OC)c(OC)c2)c(N2CCOCC2)n1`: the RP-LC retention time was 646 s. Then `COCCN1CCCc2ccc(NC(=O)c3cccc(Br)c3)cc21`, with 993 s.
